Results published in US12686866B2, “Methods of treating cancer by suppression of FAMIN expression” (Cambridge Enterprise Limited, priority 2018, dated 2026).

What was measured:
Assay type in all cases: biochemical
[1] = biological target: T1, recombinant FAMIN (Homo sapiens, UniProt Q8IV20); assay: FAMIN adenosine deaminase activity: inosine generated from adenosine by recombinant FAMIN; conditions: 10 μg recombinant FAMIN, 10 μM adenosine in PBS, 1 h at 37° C.; FIG. 11A
T1 sequence (Q8IV20 1-430): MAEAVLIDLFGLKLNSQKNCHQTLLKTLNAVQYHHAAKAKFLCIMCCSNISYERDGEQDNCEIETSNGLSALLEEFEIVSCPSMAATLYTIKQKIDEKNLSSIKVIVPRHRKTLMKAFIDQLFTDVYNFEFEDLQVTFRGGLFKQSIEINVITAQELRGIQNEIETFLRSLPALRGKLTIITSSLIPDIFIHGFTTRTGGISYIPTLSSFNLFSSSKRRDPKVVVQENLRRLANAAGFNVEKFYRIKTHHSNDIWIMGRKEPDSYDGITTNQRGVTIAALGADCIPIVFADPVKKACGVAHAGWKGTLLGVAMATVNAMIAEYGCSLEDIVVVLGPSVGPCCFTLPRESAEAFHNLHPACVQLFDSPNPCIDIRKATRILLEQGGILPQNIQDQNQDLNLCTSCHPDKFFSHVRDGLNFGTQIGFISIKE
Excerpt: (§1) FIGS. 11B and 11C show levels of adenine and ribose-1-phosphate (R-1-P) in the reaction described in FIG. 11A.

[2] = biological target: T1, recombinant FAMIN; assay: FAMIN adenosine phosphorylase activity: adenine and R-1-P from adenosine with recombinant FAMIN; conditions: 10 μg recombinant FAMIN, 10 μM adenosine in PBS, 1 h at 37° C., FIG. 11B
Excerpt: as §1

[3] = biological target: T1, recombinant FAMIN; assay: FAMIN purine nucleoside phosphorylase activity: hypoxanthine and R-1-P from inosine with recombinant FAMIN; conditions: 10 μg recombinant FAMIN, 10 μM inosine in PBS, 1 h at 37° C.; FIG. 11D, E
Excerpt: as §1

Row | SMILES | effect on FAMIN's adenosine deaminase activity (generation of inosine from adenosine) [1] | effect on FAMIN's adenosine phosphorylase activity (adenine and R-1-P levels) [2] | effect on FAMIN's purine nucleoside phosphorylase activity (hypoxanthine and R-1-P levels) [3]
1 | CCCCCC[C@@H]([C@@H](C)O)n1cnc2c(N)ncnc21 (racemic) [EHNA, erythro-9-(2-hydroxy-3-nonyl) adenine] | inhibit FAMIN's adenosine deaminase activity | – | –
2 | Nc1nc2c(nc(N)n2[C@@H]2O[C@H](CO)[C@@H](O)[C@H]2O)c(=O)[nH]1 [8-aminoguanosine] | – | leaving FAMIN's adenosine phosphorylase activity intact | active on FAMIN's purine nucleoside phosphorylase activity
